# Assay results from ChEMBL document CHEMBL5096151, “Phytocannabinoid Pharmacology: Medicinal Properties of Cannabis sativa Constituents Aside from the "Big Two"” (J Nat Prod, 2021).
# Columns and labels:
# Cannabinoid receptor 1 [1] = biological target: T1, Cannabinoid receptor 1 (Homo sapiens, UniProt P21554); assay: Binding affinity to CB1 (unknown origin) receptor assessed as inhibition constant
# Cannabinoid receptor 2 [2] = biological target: T2, Cannabinoid receptor 2 (Homo sapiens, UniProt P34972); assay: Binding affinity to human CB2 receptor assessed as inhibition constant
# [3] = biological target: Cannabinoid receptor 1 (Mus musculus) (UniProt P47746); assay: Agonist activity at CB1 receptor in albino MF1 mouse vas deferens assessed as inhibition of electrically evoked vas deferens contraction by incubated for 13 mins followed by electrical stimulation for 2 mins; type: functional; conditions: filed as antagonist, time 15.0 min
# [4] = biological target: T3, Transient receptor potential cation channel subfamily V member 1 (Homo sapiens, UniProt Q8NER1); assay: Agonist activity at ionomycin-stimulated TRPV1 (unknown origin) activation assessed as efficacy relative to control
# [5] = biological target: T4, Transient receptor potential cation channel subfamily V member 2 (Homo sapiens, UniProt Q9Y5S1); assay: Agonist activity at ionomycin-stimulated TRPV2 (unknown origin) activation
# T4 sequence (Q9Y5S1 whole entry): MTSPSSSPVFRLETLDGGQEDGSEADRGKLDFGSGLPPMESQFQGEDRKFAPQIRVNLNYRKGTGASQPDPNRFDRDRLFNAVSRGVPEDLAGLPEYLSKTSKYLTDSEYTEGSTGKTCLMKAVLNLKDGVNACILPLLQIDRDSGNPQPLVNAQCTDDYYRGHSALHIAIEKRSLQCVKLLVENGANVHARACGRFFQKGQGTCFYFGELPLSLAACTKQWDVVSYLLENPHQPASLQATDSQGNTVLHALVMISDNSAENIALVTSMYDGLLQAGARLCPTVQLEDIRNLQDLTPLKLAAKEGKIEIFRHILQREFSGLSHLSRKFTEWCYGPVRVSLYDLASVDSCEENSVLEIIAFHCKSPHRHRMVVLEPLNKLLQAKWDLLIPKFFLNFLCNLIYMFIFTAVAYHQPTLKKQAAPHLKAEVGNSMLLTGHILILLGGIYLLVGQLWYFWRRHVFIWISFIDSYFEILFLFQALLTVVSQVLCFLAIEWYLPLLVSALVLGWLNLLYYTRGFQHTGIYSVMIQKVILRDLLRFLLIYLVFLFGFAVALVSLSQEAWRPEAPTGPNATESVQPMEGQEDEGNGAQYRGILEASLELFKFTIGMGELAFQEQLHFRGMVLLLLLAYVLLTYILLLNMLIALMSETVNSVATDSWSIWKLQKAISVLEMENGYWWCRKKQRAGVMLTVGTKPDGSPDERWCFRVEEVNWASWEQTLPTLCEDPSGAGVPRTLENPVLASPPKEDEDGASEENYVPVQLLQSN
# [6] = biological target: T5, Transient receptor potential cation channel subfamily V member 2 (Homo sapiens) (UniProt Q9Y5S1); assay: Agonist activity at ionomycin-stimulated TRPV2 (unknown origin) activation assessed as efficacy relative to control; conditions: filed as agonist
# T5 sequence (whole entry): T4 sequence (Q9Y5S1 whole entry)
# [7] = biological target: T4, Transient receptor potential cation channel subfamily V member 2; assay: Agonist activity at ionomycin-stimulated TRPV2 (unknown origin) channel desensitization in presence of lysophosphatidylcholine
# [8] = biological target: T6, Transient receptor potential cation channel subfamily V member 3 (Homo sapiens, UniProt Q8NET8); assay: Agonist activity at ionomycin-stimulated TRPV3 (unknown origin) activation
# T6 sequence (Q8NET8 whole entry): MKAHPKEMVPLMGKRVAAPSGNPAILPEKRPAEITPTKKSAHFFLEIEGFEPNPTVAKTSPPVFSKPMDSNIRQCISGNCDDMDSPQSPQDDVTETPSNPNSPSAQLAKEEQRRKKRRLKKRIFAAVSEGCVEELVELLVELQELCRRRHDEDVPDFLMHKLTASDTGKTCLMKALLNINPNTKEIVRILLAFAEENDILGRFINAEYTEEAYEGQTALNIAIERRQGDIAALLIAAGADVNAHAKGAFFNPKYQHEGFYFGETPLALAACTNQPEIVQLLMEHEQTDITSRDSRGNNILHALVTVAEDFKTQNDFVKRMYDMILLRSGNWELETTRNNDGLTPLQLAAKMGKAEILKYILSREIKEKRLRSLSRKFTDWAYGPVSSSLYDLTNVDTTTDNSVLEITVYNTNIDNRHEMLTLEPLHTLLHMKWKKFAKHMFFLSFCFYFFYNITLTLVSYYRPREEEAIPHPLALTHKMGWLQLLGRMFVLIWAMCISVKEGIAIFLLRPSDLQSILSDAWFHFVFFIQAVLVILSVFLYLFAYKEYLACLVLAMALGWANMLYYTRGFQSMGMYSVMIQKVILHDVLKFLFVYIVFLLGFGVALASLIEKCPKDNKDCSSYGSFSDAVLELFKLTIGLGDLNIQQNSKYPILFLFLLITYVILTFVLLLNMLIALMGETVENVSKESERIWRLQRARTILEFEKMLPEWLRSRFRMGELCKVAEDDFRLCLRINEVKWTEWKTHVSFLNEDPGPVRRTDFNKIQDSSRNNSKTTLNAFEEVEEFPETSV
# [9] = biological target: T7, Transient receptor potential cation channel subfamily V member 3 (Homo sapiens) (UniProt Q8NET8); assay: Agonist activity at ionomycin-stimulated TRPV3 (unknown origin) activation assessed as efficacy relative to control
# T7 sequence (whole entry): T6 sequence (Q8NET8 whole entry)
# [10] = biological target: T6, Transient receptor potential cation channel subfamily V member 3; assay: Agonist activity at ionomycin-stimulated TRPV3 (unknown origin) channel desensitization in presence of carvacrol
# [11] = biological target: T8, Transient receptor potential cation channel subfamily V member 4 (Homo sapiens, UniProt Q9HBA0); assay: Agonist activity at ionomycin-stimulated TRPV4 (unknown origin) activation
# [12] = biological target: T8, Transient receptor potential cation channel subfamily V member 4; assay: Agonist activity at ionomycin-stimulated TRPV4 (unknown origin) activation assessed as efficacy relative to control
# [13] = biological target: T8, Transient receptor potential cation channel subfamily V member 4; assay: Agonist activity at ionomycin-stimulated TRPV4 (unknown origin) channel desensitization in presence of 4alphaPDD
# [14] = biological target: T9, Transient receptor potential cation channel subfamily A member 1 (Homo sapiens, UniProt O75762); assay: Agonist activity at TRPA1 (unknown origin) activation
# [15] = biological target: T9, Transient receptor potential cation channel subfamily A member 1; assay: Agonist activity at TRPA1 (unknown origin) activation assessed as efficacy relative to control; conditions: filed as agonist
# [16] = biological target: T9, Transient receptor potential cation channel subfamily A member 1; assay: Agonist activity at TRPA1 (unknown origin) channel desensitization in presence of isothiocyanate
# Cannabinoid receptor 1 [17] = biological target: T1, Cannabinoid receptor 1; assay: Displacement of [3H]-WIN55212-2 from human CB1 receptor transfected in CHO cell membrane incubated for 90 mins by Liquid scintillation counter analysis; type: cell membranes
# Cannabinoid receptor 1 [18] = biological target: Cannabinoid receptor 1 (Rattus norvegicus, UniProt P20272); assay: Displacement of [35S]GTPgammaS from CB1 receptor in rat brain; type: tissue-based
# Cannabinoid receptor 1 [19] = biological target: T1, Cannabinoid receptor 1; assay: Displacement of [35S]GTPgammaS from human CB1 receptor expressed in CHO cells; type: cell-based
# [20] = Agonist activity at CB2 receptor in albino MF1 mouse vas deferens assessed as inhibition of electrically evoked vas deferens contraction by incubated for 13 mins followed by electrical stimulation for 2 mins
# [21] = biological target: Alpha-2A adrenergic receptor (Homo sapiens) (UniProt P08913); assay: Displacement of [35S]GTPgammaS from human alpha2-adreno receptor receptor expressed in CHO cells; type: cell-based
# Staphylococcus aureus [22] = assay: Antibiofilm activity against methicillin-resistant Staphylococcus aureus USA300 incubated for 24 hrs by crystal violet staining based assay; type: functional
# Staphylococcus aureus [23] = assay: Antibiofilm activity against methicillin-resistant Staphylococcus aureus USA300 incubated for 24 hrs by CLSI based assay; type: functional
# Staphylococcus aureus [24] = assay: Antibacterial activity against methicillin-resistant Staphylococcus aureus USA300 infected in mouse assessed as log10 reduction in bacterial load in spleen at 100 mg/kg ,ip measured for 30 mins; type: functional; conditions: 0.5 h
# Escherichia coli = assay: […] activity against Escherichia coli in presence of polymyxin; type: functional
# [25] = biological target: T3, Transient receptor potential cation channel subfamily V member 1; assay: Agonist activity at ionomycin-stimulated TRPV1 (unknown origin) channel desensitization in presence of capsaicin
# [26] = biological target: T9, Transient receptor potential cation channel subfamily A member 1; assay: Agonist activity at TRPA1 (unknown origin) channel desensitization in presence of icilin
# Cannabinoid receptor 1 [27] = biological target: T1, Cannabinoid receptor 1; assay: Binding affinity to CB1 (unknown origin) assessed as inhibition constant
# Cannabinoid receptor 1 [28] = biological target: T1, Cannabinoid receptor 1; assay: Binding affinity to CB1 (unknown origin) expressed in CHO -k1 cells assessed as inhibition constant; type: cell-based
# Cannabinoid receptor 2 [29] = biological target: T2, Cannabinoid receptor 2; assay: Binding affinity to CB2 receptor (unknown origin) expressed in CHO -k1 cells assessed as inhibition constant; type: cell-based
# Cannabinoid receptor 2 [30] = biological target: T2, Cannabinoid receptor 2; assay: Binding affinity to CB2 receptor (unknown origin) expressed in AtT20 cells assessed as inhibition constant; type: cell-based
# HT-22 = assay: Neuroprotection against glutamate-induced oxytosis in mouse HT-22 cells assessed as cell viability; type: functional, cell-based
# Staphylococcus aureus [31] = assay: Antibacterial activity against methicillin-resistant Staphylococcus aureus; type: functional
# Cytochrome P450 2J2 = Cytochrome P450 2J2 (Homo sapiens, UniProt P51589); assay: Non competitive inhibition of CYP2J2 (unknown origin) in presence of NADPH by LC-MS/MS analysis; type: ADME
# Cytochrome P450 2A6 [32] = biological target: T10, Cytochrome P450 2A6 (Homo sapiens, UniProt P11509); assay: Non competitive inhibition of recombinant human CYP2A6 using coumarin as substrate preincubated with NADPH for 20 mins and measured after 30 min; type: ADME
# Cytochrome P450 2A6 [33] = biological target: T10, Cytochrome P450 2A6; assay: Non competitive inhibition of recombinant human CYP2A6 using coumarin as substrate preincubated with NADPH for 20 mins and measured after 30 min by Lineweaver-burk plots analysis; type: ADME
# Cytochrome P450 2B6 [34] = biological target: T11, Cytochrome P450 2B6 (Homo sapiens, UniProt P20813); assay: Mixed inhibition of recombinant human CYP2B6 using coumarin as substrate preincubated with NADPH for 20 mins and measured after 30 min by Lineweaver-burk plots analysis; type: ADME
# T11 sequence (P20813 whole entry): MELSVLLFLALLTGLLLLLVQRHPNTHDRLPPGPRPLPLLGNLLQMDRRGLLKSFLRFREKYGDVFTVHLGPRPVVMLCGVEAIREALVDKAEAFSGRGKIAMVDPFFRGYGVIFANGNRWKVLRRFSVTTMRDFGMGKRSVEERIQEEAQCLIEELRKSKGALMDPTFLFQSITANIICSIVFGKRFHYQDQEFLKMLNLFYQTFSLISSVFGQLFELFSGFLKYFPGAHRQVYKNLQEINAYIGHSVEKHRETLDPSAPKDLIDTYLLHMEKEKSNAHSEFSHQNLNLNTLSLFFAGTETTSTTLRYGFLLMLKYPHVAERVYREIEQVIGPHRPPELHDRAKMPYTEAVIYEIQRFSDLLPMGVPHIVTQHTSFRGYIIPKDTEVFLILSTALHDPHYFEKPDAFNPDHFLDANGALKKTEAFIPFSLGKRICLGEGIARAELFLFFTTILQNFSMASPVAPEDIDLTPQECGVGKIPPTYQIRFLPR
# Cytochrome P450 2B6 [35] = biological target: T11, Cytochrome P450 2B6; assay: Inhibition of recombinant human CYP2B6 using coumarin as substrate preincubated with NADPH for 20 mins and measured after 30 min by Lineweaver-burk plots analysis; type: ADME
# T2 sequence (P34972 whole entry): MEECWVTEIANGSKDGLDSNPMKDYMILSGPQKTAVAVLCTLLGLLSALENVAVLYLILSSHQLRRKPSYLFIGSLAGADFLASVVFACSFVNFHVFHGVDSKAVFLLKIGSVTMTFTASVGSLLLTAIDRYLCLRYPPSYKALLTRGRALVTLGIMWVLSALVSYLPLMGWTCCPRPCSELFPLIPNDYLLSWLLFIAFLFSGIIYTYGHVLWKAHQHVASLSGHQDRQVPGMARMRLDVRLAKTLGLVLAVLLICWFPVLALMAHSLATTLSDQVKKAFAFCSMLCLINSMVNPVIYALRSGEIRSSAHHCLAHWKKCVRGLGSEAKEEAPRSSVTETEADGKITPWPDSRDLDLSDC
# T1 sequence (P21554 whole entry): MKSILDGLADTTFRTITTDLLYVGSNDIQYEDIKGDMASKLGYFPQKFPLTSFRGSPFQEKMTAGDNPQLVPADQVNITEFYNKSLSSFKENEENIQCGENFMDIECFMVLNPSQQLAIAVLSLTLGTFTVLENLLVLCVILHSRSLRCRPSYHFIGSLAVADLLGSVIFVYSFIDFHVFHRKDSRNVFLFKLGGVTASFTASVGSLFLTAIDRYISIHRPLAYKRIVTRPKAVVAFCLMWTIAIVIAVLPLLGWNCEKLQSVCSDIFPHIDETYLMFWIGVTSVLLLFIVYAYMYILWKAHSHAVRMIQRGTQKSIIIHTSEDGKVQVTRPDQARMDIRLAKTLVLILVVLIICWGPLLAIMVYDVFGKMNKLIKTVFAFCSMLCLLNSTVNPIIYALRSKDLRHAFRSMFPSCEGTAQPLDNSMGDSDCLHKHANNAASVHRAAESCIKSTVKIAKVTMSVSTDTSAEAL
# T3 sequence (Q8NER1 whole entry): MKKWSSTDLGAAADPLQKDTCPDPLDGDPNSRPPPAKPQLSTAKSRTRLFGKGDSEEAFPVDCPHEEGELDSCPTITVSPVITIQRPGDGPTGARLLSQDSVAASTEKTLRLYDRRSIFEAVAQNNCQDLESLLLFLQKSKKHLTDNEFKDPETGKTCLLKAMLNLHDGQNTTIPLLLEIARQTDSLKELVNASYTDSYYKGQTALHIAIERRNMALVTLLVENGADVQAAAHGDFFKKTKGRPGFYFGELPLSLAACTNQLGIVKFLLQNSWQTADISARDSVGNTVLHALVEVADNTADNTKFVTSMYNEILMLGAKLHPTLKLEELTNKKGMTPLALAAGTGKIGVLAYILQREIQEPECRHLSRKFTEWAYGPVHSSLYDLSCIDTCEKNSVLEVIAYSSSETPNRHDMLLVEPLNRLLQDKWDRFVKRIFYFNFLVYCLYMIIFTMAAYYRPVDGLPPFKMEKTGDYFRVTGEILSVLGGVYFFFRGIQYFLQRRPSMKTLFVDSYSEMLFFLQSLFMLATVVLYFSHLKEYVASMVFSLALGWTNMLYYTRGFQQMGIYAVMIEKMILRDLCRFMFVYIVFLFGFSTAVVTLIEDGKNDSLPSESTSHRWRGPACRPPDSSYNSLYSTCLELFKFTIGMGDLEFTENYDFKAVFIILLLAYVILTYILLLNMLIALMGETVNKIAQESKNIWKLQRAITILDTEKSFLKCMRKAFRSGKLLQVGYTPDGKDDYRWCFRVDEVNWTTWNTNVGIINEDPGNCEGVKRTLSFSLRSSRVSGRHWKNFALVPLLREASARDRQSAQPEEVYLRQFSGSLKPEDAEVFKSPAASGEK
# T9 sequence (O75762 whole entry): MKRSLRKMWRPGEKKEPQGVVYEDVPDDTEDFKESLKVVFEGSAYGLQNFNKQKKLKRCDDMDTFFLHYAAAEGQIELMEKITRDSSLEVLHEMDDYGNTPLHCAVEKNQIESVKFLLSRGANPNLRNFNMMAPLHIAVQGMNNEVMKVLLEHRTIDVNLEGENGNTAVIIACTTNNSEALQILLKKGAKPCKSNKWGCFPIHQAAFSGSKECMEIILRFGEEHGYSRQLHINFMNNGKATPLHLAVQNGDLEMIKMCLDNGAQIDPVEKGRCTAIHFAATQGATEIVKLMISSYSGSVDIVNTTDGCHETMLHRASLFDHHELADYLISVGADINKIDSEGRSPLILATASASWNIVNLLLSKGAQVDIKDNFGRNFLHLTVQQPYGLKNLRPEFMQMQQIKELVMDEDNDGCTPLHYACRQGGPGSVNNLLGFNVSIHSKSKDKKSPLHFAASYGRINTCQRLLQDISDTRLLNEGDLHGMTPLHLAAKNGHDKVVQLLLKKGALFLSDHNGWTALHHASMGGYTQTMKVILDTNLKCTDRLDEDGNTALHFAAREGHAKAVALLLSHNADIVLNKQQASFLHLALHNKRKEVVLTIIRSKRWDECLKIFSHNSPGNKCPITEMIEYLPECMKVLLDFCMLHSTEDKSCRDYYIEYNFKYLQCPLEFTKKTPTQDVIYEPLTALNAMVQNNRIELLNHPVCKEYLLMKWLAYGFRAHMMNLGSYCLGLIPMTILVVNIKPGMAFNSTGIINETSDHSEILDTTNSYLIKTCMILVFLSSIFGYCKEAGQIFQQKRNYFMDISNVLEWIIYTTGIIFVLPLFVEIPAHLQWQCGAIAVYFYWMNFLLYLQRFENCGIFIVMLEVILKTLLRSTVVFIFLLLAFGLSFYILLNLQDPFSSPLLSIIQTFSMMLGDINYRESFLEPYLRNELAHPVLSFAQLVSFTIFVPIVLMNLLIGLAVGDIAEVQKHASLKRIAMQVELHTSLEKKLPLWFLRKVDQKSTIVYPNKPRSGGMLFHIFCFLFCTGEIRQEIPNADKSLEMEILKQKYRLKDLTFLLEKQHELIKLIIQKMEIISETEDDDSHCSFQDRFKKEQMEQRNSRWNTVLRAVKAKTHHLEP
# T8 sequence (Q9HBA0 whole entry): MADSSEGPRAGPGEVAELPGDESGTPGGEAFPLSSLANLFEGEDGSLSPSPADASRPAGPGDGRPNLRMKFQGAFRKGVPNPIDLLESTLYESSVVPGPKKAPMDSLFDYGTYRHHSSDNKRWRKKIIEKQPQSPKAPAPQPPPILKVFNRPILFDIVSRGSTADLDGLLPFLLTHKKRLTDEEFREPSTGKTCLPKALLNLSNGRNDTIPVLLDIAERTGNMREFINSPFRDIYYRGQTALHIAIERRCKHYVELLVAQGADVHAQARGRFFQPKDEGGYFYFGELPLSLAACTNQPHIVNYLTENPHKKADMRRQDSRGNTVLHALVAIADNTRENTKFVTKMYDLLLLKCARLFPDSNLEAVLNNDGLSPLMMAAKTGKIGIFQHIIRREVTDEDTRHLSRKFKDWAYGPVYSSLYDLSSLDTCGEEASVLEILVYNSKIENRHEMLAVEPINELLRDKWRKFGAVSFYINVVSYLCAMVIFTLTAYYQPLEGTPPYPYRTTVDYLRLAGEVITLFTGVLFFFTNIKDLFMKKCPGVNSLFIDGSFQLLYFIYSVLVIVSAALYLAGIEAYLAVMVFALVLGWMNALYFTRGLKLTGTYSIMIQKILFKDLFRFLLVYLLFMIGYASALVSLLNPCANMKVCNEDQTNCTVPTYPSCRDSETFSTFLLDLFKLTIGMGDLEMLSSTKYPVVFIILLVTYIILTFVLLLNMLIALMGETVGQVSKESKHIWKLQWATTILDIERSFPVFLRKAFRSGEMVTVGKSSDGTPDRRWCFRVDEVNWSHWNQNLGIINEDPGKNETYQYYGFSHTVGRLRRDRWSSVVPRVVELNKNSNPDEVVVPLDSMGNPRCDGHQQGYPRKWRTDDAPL
# T10 sequence (P11509 whole entry): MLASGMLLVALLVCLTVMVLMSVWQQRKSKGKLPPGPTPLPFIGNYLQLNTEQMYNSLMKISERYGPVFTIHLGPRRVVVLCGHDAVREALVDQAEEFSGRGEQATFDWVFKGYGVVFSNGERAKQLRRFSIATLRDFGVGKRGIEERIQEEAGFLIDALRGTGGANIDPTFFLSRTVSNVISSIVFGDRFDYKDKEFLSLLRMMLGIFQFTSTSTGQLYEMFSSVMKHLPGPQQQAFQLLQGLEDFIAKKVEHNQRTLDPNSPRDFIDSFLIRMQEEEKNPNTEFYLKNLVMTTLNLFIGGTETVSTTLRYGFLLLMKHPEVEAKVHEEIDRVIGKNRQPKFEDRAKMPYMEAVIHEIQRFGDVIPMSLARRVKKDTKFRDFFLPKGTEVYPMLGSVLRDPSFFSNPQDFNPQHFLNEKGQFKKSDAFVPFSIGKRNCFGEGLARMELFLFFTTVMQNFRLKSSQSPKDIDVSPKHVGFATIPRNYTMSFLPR
# Chain of Cytochrome P450 2J2 (P51589 whole entry): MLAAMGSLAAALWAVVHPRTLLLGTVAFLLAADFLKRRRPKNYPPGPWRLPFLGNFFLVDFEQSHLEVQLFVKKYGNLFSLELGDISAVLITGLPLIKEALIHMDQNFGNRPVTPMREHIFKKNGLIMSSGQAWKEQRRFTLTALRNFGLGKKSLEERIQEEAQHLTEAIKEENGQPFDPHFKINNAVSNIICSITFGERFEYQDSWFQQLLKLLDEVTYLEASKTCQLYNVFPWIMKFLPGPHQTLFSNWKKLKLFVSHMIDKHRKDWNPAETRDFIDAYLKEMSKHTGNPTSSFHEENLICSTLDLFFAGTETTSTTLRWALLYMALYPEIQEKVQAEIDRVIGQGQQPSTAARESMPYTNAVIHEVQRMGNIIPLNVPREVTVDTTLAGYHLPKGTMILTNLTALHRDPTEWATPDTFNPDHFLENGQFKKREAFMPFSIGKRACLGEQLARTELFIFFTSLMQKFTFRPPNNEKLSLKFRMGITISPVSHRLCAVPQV
smiles,measurement,setting,value
CCCCCCCc1cc(O)c2c(c1)OC(C)(C)[C@@H]1CCC(C)=C[C@@H]21,Ki,Cannabinoid receptor 1 [1],0.13 µM
same,Ki,Cannabinoid receptor 2 [2],0.0069 µM
CCCCCc1cc(O)c(C/C=C(\C)CCC=C(C)C)c(O)c1 [CANNABIGEROL],K,[3],0.38 µM
same,Efficacy,[4],34%
same,EC50,[5],1.7 µM
same,Efficacy,[6],74%
same,IC50,[7],1.5 µM
same,EC50,[8],1 µM
same,Efficacy,[9],18%
same,IC50,[10],66 µM
same,EC50,[11],5.1 µM
same,Efficacy,[12],24%
same,IC50,[13],1.3 µM
same,EC50,[14],0.7 µM
same,Efficacy,[15],100%
same,IC50,[16],13 µM
same,K,Cannabinoid receptor 1 [17],1.04 µM
same,Ki,Cannabinoid receptor 1 [18],0.44 µM
same,Ki,Cannabinoid receptor 1 [19],2.6 µM
same,Ki,[20],1.1 µM
same,EC5,[21],0.002 µM
same,MIC,Staphylococcus aureus [22],0.5 µg/mL
same,MIC90,Staphylococcus aureus [22],4 µg/mL
same,MIC90,Staphylococcus aureus [23],4 µg/mL
same,log(activity),Staphylococcus aureus [24],2.8
same,MIC,Escherichia coli,4 µg/mL
CCCCCc1cc(O)c2c(c1)OC(C)(C)c1ccc(C)cc1-2 [CANNABINOL],Efficacy,[4],< 10%
same,IC50,[25],82 µM
same,EC50,[5],19 µM
same,Efficacy,[6],74%
same,IC50,[7],15.7 µM
same,EC50,[8],5.3 µM
same,Efficacy,[9]; filed as agonist,72%
same,IC50,[10],9.4 µM
same,EC50,[11],16.1 µM
same,Efficacy,[12]; filed as agonist,60%
same,IC50,[13],5.4 µM
same,EC50,[14],0.18 µM
same,Efficacy,[15],243%
same,IC50,[16],0.4 µM
same,IC50,[26],0.21 µM
same,Ki,Cannabinoid receptor 1 [27],1.1 µM
same,Ki,Cannabinoid receptor 1 [28],0.07 µM
same,Ki,Cannabinoid receptor 2 [29],0.07 µM
same,Ki,Cannabinoid receptor 2 [30],0.3 µM
same,EC50,HT-22,0.61 µM
same,MIC,Staphylococcus aureus [31],1 µg/mL
same,IC50,Cytochrome P450 2J2,19 µM
same,IC50,Cytochrome P450 2A6 [32],30.4 µM
same,Ki,Cytochrome P450 2A6 [33],1 µM
same,Ki,Cytochrome P450 2B6 [34],39 µM
same,Ki,Cytochrome P450 2B6 [35],2.55 µM
